Assay results published in the NIST ThermoML archive (doi:10.1021/je900697w).

How the values were obtained:
[1] = for surface tension liquid-gas: Ring tensiometer; for mass density: 101.33 kPa, Liquid
[2] = xn = mol fraction of the nth substance listed; conditions: for surface tension liquid-gas: Ring tensiometer; for mass density: 101 kPa, Liquid, Vibrating tube method
[3] = 101 kPa, Liquid mixture 1, Ring tensiometer

CCCCCC[n+]1ccn(C)c1.O=S(=O)([N-]S(=O)(=O)C(F)(F)F)C(F)(F)F
[1]
Conditions | mass density [kg/m3] | surface tension liquid-gas [mN/m]
283.1 K | 1385.4 | 31.2
298.15 K | 1370.7 | 30.8
323.15 K | 1348 | 28.9
348.15 K | 1324 | 27.6

CCCCCC[n+]1ccn(C)c1.O=S(=O)([N-]S(=O)(=O)C(F)(F)F)C(F)(F)F + C=CCCCCCC
[2], x2 = 0
Conditions | mass density [kg/m3] | surface tension liquid-gas [mN/m]
283.1 K | 1385.4 | 31.2
298.15 K | 1370.7 | 30.8
323.15 K | 1348 | 28.9
348.15 K | 1324 | 27.6

C=CCCCCCC [oct-1-ene]
[1]
Conditions | surface tension liquid-gas [mN/m]
283.1 K | 22.5
298.15 K | 21.2
323.15 K | 18.5
348.15 K | 15.7

[1], Vibrating tube method
Conditions | mass density [kg/m3]
283.1 K | 723.5
298.15 K | 711.2
323.15 K | 690
348.15 K | 668

C=CCCCCCC [oct-1-ene] + CCCCCC[n+]1ccn(C)c1.O=S(=O)([N-]S(=O)(=O)C(F)(F)F)C(F)(F)F
[3]
Conditions | interfacial tension [mN/m]
283.1 K | 13.3
298.15 K | 13
323.15 K | 9.7
348.15 K | 4.4

[2]
Conditions | mass density [kg/m3] | surface tension liquid-gas [mN/m]
283.1 K, x1 = 0.05 | 1372.1 | 30.9
283.1 K, x1 = 0.1 | 1356 | 29.8
283.1 K, x1 = 0.139 | 1340 | –
283.1 K, x1 = 0.15 | – | 27.8
283.1 K, x1 = 0.154 | 1340 | –
283.1 K, x1 = 0.16 | – | 27.7
283.1 K, x1 = 1 | – | 22.5
298.15 K, x1 = 0.05 | 1358 | 30.3
298.15 K, x1 = 0.1 | 1342 | 29.4
298.15 K, x1 = 0.139 | 1328 | –
298.15 K, x1 = 0.15 | – | 27.4
298.15 K, x1 = 0.154 | 1326 | –
298.15 K, x1 = 0.19 | – | 27
298.15 K, x1 = 1 | – | 21.2
323.15 K, x1 = 0.05 | 1336 | 28.8
323.15 K, x1 = 0.1 | 1319 | 28.7
323.15 K, x1 = 0.139 | 1306 | –
323.15 K, x1 = 0.15 | – | 26.6
323.15 K, x1 = 0.154 | 1303 | –
323.15 K, x1 = 0.23 | – | 25.5
323.15 K, x1 = 1 | – | 18.5
348.15 K, x1 = 0.05 | 1313 | 27.4
348.15 K, x1 = 0.1 | 1300 | 27.2
348.15 K, x1 = 0.139 | 1282 | –
348.15 K, x1 = 0.15 | – | 26.3
348.15 K, x1 = 0.154 | 1279 | –
348.15 K, x1 = 0.28 | – | 25.3
348.15 K, x1 = 1 | – | 15.7
